Laboratory results taken from US4757153A, “Sulfide, sulfinyl and sulfone dipeptide amides” (G. D. Searle & Co., priority 1986, dated 1988).

Columns and labels:
[1] = biological target: opiate receptors isolated from rat brain; experiment: Opiate Binding Assay (displacement of 3H-Naloxone); settings: concentration inhibiting specific binding of 1 nM 3H-Naloxone to rat brain receptor membranes by 50%
Description: Opiate Binding Assay. The test compounds were evaluated for their ability to displace the binding of ^3 H-Naloxone to opiate receptors isolated from rat brain. Male rats [Crl: CD(SD)BR] obtained from Charles River Laboratories (Portage, MI) were sacrificed by cervical dislocation. A purified homogenate of receptor membranes was prepared from the brains according to the method described by Chang and Cuatrecasas. (K.-J. Chang and P. Cuatrecasas. Multiple Opiate Receptors: Enkephalins And Morphine Bind To Receptors Of Different Specificity. J. Biol. Chem. 254, 2610-2618 (1979).) The brains were homogenized in 10 volumes of 0.32M sucrose and centrifuged twice at 6,000xg for 15 minutes. Following centrifugation of the supernatants at 40,000xg for 30 minutes, the pellets were resuspended in 5 mM tris-HCl, and centrifuged at 6,000. The supernatant was centrifuged at 40,000xg. The resuspension in 5 mM Tris-HCl was repeated twice. The final pellet was resuspended in 2 volumes of 50 mM tris HCl (pH 7.4). The homogenate was assayed for protein content according to the method of Itzhaki and Gill (R. F. Itzhaki and D. M. Gill. A Micro-Biuret Method for Estimating Proteins. Anal. Biochem. 9, 401-410 (1964)).
The binding of the test compounds to the receptor membrane preparation was measured using a modification of the method of Pert and Snyder (C. B. Pert and S. H. Synder. Properties of Opiate-Receptor Binding in Rat Brain. Proc. Natl. Acad. Sci. 70, 2243-2247 (1973)). The receptor assay was run using final concentrations of 1 nM ^3 H-Naloxone and of tissue homogenate (0.5 mg/ml of homogenate protein. Levorphanol (1×10^-5 M) was used as the displacer for non-specific binding. Final concentration of the test compounds was 10^-5 M. The assay was run in 0.05M tris HCl (pH 7.4). Total assay volume was 1.0 ml.
Samples were incubated at 25° C. for 60 min., filtered over Whatman GF/C glass fiber filters, and rinsed twice with 4 ml washes of ice-cold buffer. The filters were air-dried at 50° C. for 30 min. After drying 10 mls of PCS was added to the vial and the radioactivity determined using a Tracor Analytic Mark III liquid scintillation counter with a counting efficiency of 48%.
The IC50 values, the concentration of the test compounds which inhibited ^3 H-Naloxone specific binding to the opiate receptor by 50%, were obtained from log-logit plots of concentration-response curves.

[2] = test system: phenylbenzoquinone-induced writhing in mice; experiment: Writhing assay (phenylbenzoquinone-induced writhing); assay type: in vivo, mouse; settings: 30 min before phenylbenzoquinone i.p., active = writhes significantly less than saline group; for Writhing Mouse Oral: screening dose 10 mg/kg oral (intragastric); for Writhing Mouse Subc.: screening dose 10 mg/kg subcutaneous
Description: Writhing assay. Male Charles River albino mice (CD-1/HAM/1LR) weighing between 20 and 30 grams were used. Thirty minutes after subcutaneous or intragastric administration of the test compound (0.1 ml/10 gram body weight), 0.025% (w/v) phenylbenzoquinone was injected intraperitoneally (0.1 ml/10 gram body weight). Five minutes later, each mouse was placed in a large glass beaker and the number of writhes that occurred in the subsequent ten minutes is counted. A writhe consisted of dorsoflexion of the back, extension of the hindlimbs, and strong contraction of the abdominal musculature. The test compound was considered to have produced analgesia in a mouse if the number of writhes elicited by phenylbenzoquinone was equal to or less than one-half the median number of writhes recorded for the saline-treated group that day. The results were expressed as the number of mice (out of a possible ten) in which the test compound produced analgesia. […] If the initial test dose of 10 mg/kg inhibited writhing in greater than 6 of 10 mice, the effect of additional doses was evaluated and an ED50 value was calculated using a maximum likelihood function.

rat = settings: injected directly into the brain of the rat; Belluzi et al. 1976; cited from earlier work
[3] = test system: brain opiate receptor sites; settings: partially purified brain opiate receptor sites; Bradberry et al. 1976; cited from earlier work

Cc1cc(O)cc(C)c1C[C@@H](N)C(=O)N[C@H](CC[S+](C)[O-])C(=O)NCCCc1ccccc1.Cl (stereo partly drawn) [Example 17, 2,6-dimethyl-D-tyrosyl-γ-(methylsulfinyl)-N-(3-phenylpropyl)-D-α-aminobutanamide, monohydrochloride]
IC50 [1]: 96 nM
Writhing Mouse Oral [2]: Inactive
Writhing Mouse Subc. [2]: Inactive

methionine enkephalin
analgesic activity (rat): weak, fleeting analgesic activity
binding to brain opiate receptor sites [3]: binds stereospecifically

2,6-dimethyl-L-tyrosyl-N-(3-phenylpropyl)-D-methioninamide, monohydrochloride [Example 14]
IC50 [1]: 0.2 nM
Writhing Mouse Oral [2]: Active
Writhing Mouse Subc. [2]: Active

L-tyrosyl-N-(3-phenylpropyl)-D-methioninamide, monohydrochloride [Example 4]
IC50 [1]: 16 nM
Writhing Mouse Oral [2]: Inactive
Writhing Mouse Subc. [2]: Inactive

L-tyrosyl-γ-(methylsulfonyl)-N-(3-phenylpropyl)-DL-α-aminobutanamide, monohydrochloride [Example 8]
IC50 [1]: 9.6 nM
Writhing Mouse Oral [2]: Inactive
Writhing Mouse Subc. [2]: Inactive

2,6-dimethyl-D-tyrosyl-N-(3-phenylpropyl)-D-methioninamide, monohydrochloride [Example 15]
IC50 [1]: 160 nM
Writhing Mouse Oral [2]: Inactive
Writhing Mouse Subc. [2]: Inactive

2,6-dimethyl-L-tyrosyl-α-(methylsulfinyl)-N-(3-phenylpropyl)-D-α-aminobutanamide, monohydrochloride [Example 16]
IC50 [1]: 0.4 nM
Writhing Mouse Oral [2]: Active
Writhing Mouse Subc. [2]: Active
